According to patent US8648208B2, “Activating agent for peroxisome proliferator activated receptor” (Nippon Chemiphar Co. Ltd., priority 2008, dated 2014):
Like-named read-outs stand apart in the source and are kept apart here.

What was measured:
Assay type in all cases: cell-based
[1] = target: T1, hPPARα (LBD) (Homo sapiens, UniProt Q07869); test: PPAR activating effect, GAL4-hPPARα LBD luciferase reporter transfection in CV-1 cells; conditions: for PPAR activity α (relative value to control compound): 100% = GW-590735 10^-6 M
T1 construct: A receptor expression plasmid (pSG5-GAL4-hPPARα or γ or δ (LBD)); GAL4 (fusion partner); expressed in transfected cells; host or cells: CV-1 cells (ATCC)
T1 sequence (Q07869 239-466 limits assumed): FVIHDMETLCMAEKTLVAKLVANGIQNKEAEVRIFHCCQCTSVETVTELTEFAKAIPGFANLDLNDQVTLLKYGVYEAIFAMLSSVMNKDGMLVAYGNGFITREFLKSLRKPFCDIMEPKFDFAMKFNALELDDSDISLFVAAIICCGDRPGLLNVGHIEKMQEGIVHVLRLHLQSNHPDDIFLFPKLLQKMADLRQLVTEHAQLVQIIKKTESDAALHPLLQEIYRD

[2] = target: T2, hPPARγ (LBD) (Homo sapiens, UniProt P37231); test: PPAR activating effect, GAL4-hPPARγ LBD luciferase reporter transfection in CV-1 cells
T2 construct: A receptor expression plasmid (pSG5-GAL4-hPPARα or γ or δ (LBD)); GAL4 (fusion partner); expressed in transfected cells; host or cells: CV-1 cells (ATCC)
T2 sequence (P37231 238-503 limits assumed): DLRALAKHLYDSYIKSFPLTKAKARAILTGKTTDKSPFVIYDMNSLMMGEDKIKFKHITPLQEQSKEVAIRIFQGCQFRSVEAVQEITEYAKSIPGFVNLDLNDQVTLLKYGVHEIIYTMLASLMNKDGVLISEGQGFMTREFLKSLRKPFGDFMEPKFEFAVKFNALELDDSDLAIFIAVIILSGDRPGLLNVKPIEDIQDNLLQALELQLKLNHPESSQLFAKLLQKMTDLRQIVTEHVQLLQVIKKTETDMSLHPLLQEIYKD

[3] = target: T3, hPPARδ (LBD) (Homo sapiens, UniProt Q03181); test: PPAR activating effect, GAL4-hPPARδ LBD luciferase reporter transfection in CV-1 cells; set-up: activation: dose or concentration left out as unconfirmed; conditions: for activation: CV-1, 40 h, read-out: PPAR activity δ (relative value to control compound)
T3 construct: A receptor expression plasmid (pSG5-GAL4-hPPARα or γ or δ (LBD)); GAL4 (fusion partner); expressed in transfected cells; host or cells: CV-1 cells (ATCC)
T3 sequence (Q03181 211-439 limits assumed): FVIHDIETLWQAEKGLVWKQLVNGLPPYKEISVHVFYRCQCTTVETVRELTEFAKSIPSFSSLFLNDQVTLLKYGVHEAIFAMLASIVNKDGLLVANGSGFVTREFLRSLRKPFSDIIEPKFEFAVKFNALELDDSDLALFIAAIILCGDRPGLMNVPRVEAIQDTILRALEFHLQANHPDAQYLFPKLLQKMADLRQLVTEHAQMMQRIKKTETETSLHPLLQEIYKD

[4] = Table 26, test compound 10^-7 M
[5] = Table 24, CV-1 cells, approx. 40 h
[6] = Table 24, 100% = Rosiglitazone 10^-5 M, CV-1 cells, approx. 40 h

Compound | PPAR activity α (relative value to control compound) [1, 5] | PPAR activity γ (relative value to control compound) [2, 6] | activation [3] [%] | other results
2-[3-[2-[3-Isopropyl-6-(trifluoromethyl)benzothiophen-2-yl]ethyl]benzisoxazol-6-yloxy]propionic acid [Example 27] |  |  |  | PPAR activity α (relative value to control compound) [1, 4]: Inactive; PPAR activity γ (relative value to control compound) ([2]; Table 26, test compound 10^-7 M, 100% = Rosiglitazone 10^-5 M): Inactive
Cc1cc(C(=O)CCc2sc3ccc(C(F)(F)F)cc3c2C)ccc1OCC(=O)O [Example 3, 2-Methyl-4-[3-[3-methyl-5-(trifluoromethyl)-benzothiophen-2-yl]propionyl]phenoxyacetic acid] | Inactive | Inactive | 4.4 | 
Cc1cc(C(=O)CCc2sc3ccc(C(F)(F)F)cc3c2C)ccc1OC(C)(C)C(=O)O [Example 4, 2-Methyl-2-[2-methyl-4-[3-[3-methyl-5-(trifluoromethyl)-benzothiophen-2-yl]propionyl]phenoxy]propionic acid] |  | 9.0% | 19.2 | 
Cc1cc(C(=O)CCc2sc3cc(C(F)(F)F)ccc3c2C)ccc1OCC(=O)O [Example 5, 2-Methyl-4-[3-[3-methyl-6-(trifluoromethyl)-benzothiophen-2-yl]propionyl]phenoxyacetic acid] | Inactive | Inactive | 23 | 
Cc1cc(C(=O)CCc2sc3cc(C(F)(F)F)ccc3c2C)ccc1OC(C)(C)C(=O)O [Example 6] | Inactive |  |  | PPAR activity γ (relative value to control compound) [2]: Inactive; PPAR activity δ (relative value to control compound) ([3]; Table 24, 100% = GW-501516 10^-7 M, CV-1 cells, approx. 40 h): 40.8%
Cc1cc(C(=O)CCc2sc3cc(C(F)(F)F)ccc3c2C)ccc1CCC(=O)O [Example 7, 3-[4-[3-[3-Methyl-6-(trifluoromethyl)-benzothiophen-2-yl]propionyl]-2-methylphenyl]propionic acid] | Inactive | Inactive | 51.4 | 
CCc1c(CCC(=O)c2ccc(CCC(=O)O)c(C)c2)sc2cc(C(F)(F)F)ccc12 [Example 8, 3-[4-[3-[3-Ethyl-6-(trifluoromethyl)benzothiophen-2-yl]propionyl]-2-methylphenyl]propionic acid] | Inactive | Inactive | 81 | 
CCCc1c(CCC(=O)c2ccc(CCC(=O)O)c(C)c2)sc2cc(C(F)(F)F)ccc12 [Example 9, 3-[2-Methyl-4-[3-[3-propyl-6-(trifluoromethyl)benzothiophen-2-yl]propionyl]phenyl]propionic acid] | Inactive | 1.3% | 83.5 | 
CCCCc1c(CCC(=O)c2ccc(CCC(=O)O)c(C)c2)sc2cc(C(F)(F)F)ccc12 [Example 10, 3-[2-Methyl-4-[3-[3-butyl-6-(trifluoromethyl)benzothiophen-2-yl]propionyl]phenyl]propionic acid] | Inactive | 2.2% | 66.1 | 
Cc1cc(C(=O)CCc2sc3cc(C(F)(F)F)ccc3c2CC(C)C)ccc1CCC(=O)O [Example 11, 3-[2-Methyl-4-[3-[3-isobutyl-6-(trifluoromethyl)benzothiophen-2-yl]propionyl]phenyl]propionic acid] | Inactive | Inactive | 60.9 | 
Cc1cc(C(=O)CCc2sc3cc(C(F)(F)F)ccc3c2C(C)C)ccc1CCC(=O)O [Example 12, 3-[2-methyl-4-[3-[3-isopropyl-6-(trifluoromethyl)benzothiophen-2-yl]propionyl]phenyl]propionic acid] | Inactive | Inactive | 87.3 | 
Cc1cc(C(CCc2sc3cc(C(F)(F)F)ccc3c2C(C)C)=NO)ccc1CCC(=O)O [Example 13, 3-[4-[1-Hydroxyimino-3-[3-isopropyl-6-(trifluoromethyl)-benzothiophen-2-yl]propyl]-2-methylphenyl]propionic acid] | Inactive | Inactive | 90.4 | 
C=C(CCc1sc2cc(C(F)(F)F)ccc2c1C(C)C)c1ccc(CCC(=O)O)c(C)c1 [Example 14, 3-[4-[1-[2-[3-Isopropyl-6-(trifluoromethyl)-benzothiophen-2-yl]ethyl]vinyl]-2-methylphenyl]propionic acid] | Inactive | Inactive | 73 | 
Cc1cc(C(=O)CCc2sc3cc(C(F)(F)F)ccc3c2C(C)C)ccc1OCC(=O)O [Example 15, 4-[3-[3-Isopropyl-6-(trifluoromethyl)benzothiophen-2-yl]-propionyl]-2-methylphenoxyacetic acid] | Inactive | Inactive | 77.4 | 
Cc1cc(C(CCc2sc3cc(C(F)(F)F)ccc3c2C(C)C)=NO)ccc1OCC(=O)O [Example 16, 4-[1-Hydroxyimino-3-[3-isopropyl-6-(trifluoromethyl)-benzothiophen-2-yl]propyl]-2-methyl-phenoxyacetic acid] | Inactive | Inactive | 51.7 | 
CON=C(CCc1sc2cc(C(F)(F)F)ccc2c1C(C)C)c1ccc(OCC(=O)O)c(C)c1 [Example 17, 4-[3-[3-Isopropyl-6-(trifluoromethyl)benzothiophen-2-yl]-1-methoxyiminopropyl]-2-methylphenoxyacetic acid] | Inactive | Inactive | 45.9 | 
Cc1cc2c(CCc3sc4cc(C(F)(F)F)ccc4c3C(C)C)noc2cc1OCC(=O)O [Example 19, [3-[2-[3-Isopropyl-6-(trifluoromethyl)benzothiophen-2-yl]-ethyl]-5-methyl-benzisoxazol-6-yloxy]acetic acid] | Inactive | Inactive | 91.7 | EC50 ([1]; Table 25, CV-1 cells, method of Example 29, read-out: PPAR activity (EC50) α): > 10 µM; EC50 ([2]; Table 25, CV-1 cells, method of Example 29, read-out: PPAR activity (EC50) γ): > 10 µM; EC50 ([3]; Table 25, CV-1 cells, method of Example 29, read-out: PPAR activity (EC50) δ): 0.0048 µM; selectivity of PPAR δ-activating effect ([3]; compared with GW-501516, from EC50 α, γ, δ of Table 25): superior to that of the GW-501516
Cc1cc2c(CCc3sc4cc(C(F)(F)F)ccc4c3C(C)C)noc2cc1N(C)CC(=O)O [Example 20, N-[3-[2-[3-Isopropyl-6-(trifluoromethyl)benzothiophen-2-yl]ethyl]-5-methylbenzisoxazol-6-yl]-N-methylglycine] |  | Inactive | 88 | 
CCCc1c(CCC(=O)c2cc(C)c(OCC(=O)O)cc2O)sc2cc(C(F)(F)F)ccc12 [Example 22] |  |  |  | PPAR activity α (relative value to control compound) [1, 4]: Inactive; PPAR activity γ (relative value to control compound) [2]: Inactive
